Activity calls are given as the source filed them. No cut-off for these calls is given here.
experiment: Metal coordinating activity assessed as compound-copper coordination at 12.5 to 37.5 uM incubated for 0.5 to 1 hr in presence of 2.5 mM CuCl2 by UV-Visible spectrophotometric analysis; type: functional

SMILES	Activity
COc1cc(C(C)C)c(C(=O)CSc2nnc(-c3ccccn3)o2)cc1C	inactive

experiment: Antioxidant activity assessed as reduction of Cu2+ in bis-neocuproine-Cu2+ complex to bis-neocuproine-Cu+ complex measured as trolox equivalent antioxidant capacity incubated for 30 mins by CUPRAC assay; type: functional

SMILES	Ratio	Activity
COc1cc(C(C)C)c(C(=O)CSc2ccccc2)cc1C	0.8	–
COc1cc(C(C)C)c(C(=O)CSc2nnc(C)s2)cc1C	1.73	–
COc1cc(C(C)C)c(C(=O)CSc2nnc(N)[nH]2)cc1C	1.62	–
O=C1O[C@H]([C@@H](O)CO)C(O)=C1O	0.85	–
COc1cc(C(C)C)c(C(=O)CSc2ncccn2)cc1C	0.39	–
COc1cc(C(C)C)c(C(=O)CSc2nc3ccccc3o2)cc1C	1.47	–
COc1cc(C(C)C)c(C(=O)CSc2nnc(-c3ccccn3)o2)cc1C	1.59	–
COc1cc(C(C)C)c(C(=O)CSc2nnc(N)s2)cc1C	1.4	–
Cc1ccc(C(C)C)cc1O	0.87	–
COc1cc(C(C)C)c(C(=O)CSc2ncnc3[nH]cnc23)cc1C	1.32	–
COc1cc(C(C)C)c(C(=O)CS(=O)(=O)c2ccccc2)cc1C	–	inactive
COc1cc(C(C)C)c(C(=O)CSc2nnc(-c3ccncc3)o2)cc1C	0.95	–
COc1cc(C(C)C)c(C(=O)CSc2ccccn2)cc1C	0.59	–
COc1cc(C(C)C)c(C(=O)CSc2nc3ccccc3[nH]2)cc1C	1.21	–
COc1cc(C(C)C)c(C(=O)CSc2nc3ccccc3s2)cc1C	1.26	–
COc1cc(C(C)C)c(C(=O)CSc2nnc(-c3cccnc3)o2)cc1C	0.68	–
COc1cc(C(C)C)c(C(=O)CSc2ccncc2)cc1C	0.47	–
COc1cc(C(C)C)c(C(=O)CSc2nnc(-c3ccccc3)o2)cc1C	1.34	–
COc1cc(C(C)C)c(C(=O)CSc2nnc(-c3ccccc3)[nH]2)cc1C	1.02	–

Source: ChEMBL document CHEMBL4351033, “Heterocyclic β-keto sulfide derivatives of carvacrol: Synthesis and copper (II) ion reducing capacity” (Bioorg Med Chem Lett, 2019)
